Assay results taken from patent US20110144159A1, “ETHER BENZYLIDENE PIPERIDINE ARYL CARBOXAMIDE COMPOUNDS USEFUL AS FAAH INHIBITORS” (Pfizer Inc, priority 2008, published 2011).

Target: T1, Human FAAH (Homo sapiens, UniProt O00519)
T1 construct: made in house
T1 sequence (O00519 32-579 limits assumed): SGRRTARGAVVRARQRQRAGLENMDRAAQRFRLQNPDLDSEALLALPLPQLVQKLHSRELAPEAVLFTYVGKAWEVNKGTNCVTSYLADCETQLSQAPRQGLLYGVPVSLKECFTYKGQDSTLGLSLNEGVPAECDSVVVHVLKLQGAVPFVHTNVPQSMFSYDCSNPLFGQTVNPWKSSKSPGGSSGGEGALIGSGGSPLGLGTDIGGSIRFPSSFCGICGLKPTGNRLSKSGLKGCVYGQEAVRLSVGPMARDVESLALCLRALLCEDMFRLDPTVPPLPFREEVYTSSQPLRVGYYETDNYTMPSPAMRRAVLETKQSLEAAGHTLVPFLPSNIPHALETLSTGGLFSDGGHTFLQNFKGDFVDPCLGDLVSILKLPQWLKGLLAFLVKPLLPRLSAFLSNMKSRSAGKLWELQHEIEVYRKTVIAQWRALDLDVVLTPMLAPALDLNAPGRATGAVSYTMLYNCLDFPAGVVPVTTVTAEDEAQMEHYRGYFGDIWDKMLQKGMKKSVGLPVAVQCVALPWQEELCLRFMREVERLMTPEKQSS
Assay: FAAH assay (glutamate dehydrogenase-coupled, oleamide substrate, absorbance at 340 nm)
Type: biochemical
Conditions: for kinact/KI: further compounds, read-out: hFAAH_Kinact/Ki—StL; for hFAAH KInact/K: irreversible inhibition potency
Experimental: A FAAH assay may be carried out in 384-well clear polystyrene plates in a total volume of 50 μl per well. All percents are by volume. To each well was placed the reaction mixture (40 μl) containing 1-4 nM FAAH, 50 mM NaPi, pH 7.4, 3 mM α-ketoglutarate, 0.15 mM NADH, 7.5 U/ml glutamate dehydrogenase, 2 mM ADP, 1 mM EDTA, and 0.1% Triton X-100 (The concentration shown for each component was the final concentration in the assay). To this mixture was added 5 μl of a compound of Examples 1 to 20 at various concentrations prepared in 50% DMSO (or 5 μl 50% DMSO for controls). This was immediately followed by the addition of 5 μl oleamide (500 μM) dissolved in 75% EtOH/25% DMSO and the reaction mixture was mixed for 1.5 min. The final concentrations of DMSO and EtOH in the assay are each 7.5%. The reactions was then incubated at 30° C. and the absorbance at 340 nm was collected over a period of 90 min with readings taken in 30-second intervals using SpectraMax Plus^384 Microplate Spectrophotometer (Molecular Devices, Sunnyvale, Calif.). Human FAAH used in the assay was prepared as described in the patent application WO 2006/067613. The purity of the enzyme used was greater than 98% based on an analysis by SDS-polyacrylamide gel electrophoresis followed by Coomassie Blue staining.
Initial velocity data (V) is obtained from the slopes of the initial progressive curves. They are plotted as a function of substrate concentration and fit to the Michaelis-Menten equation (1) using Prism (GraphPad Software, Inc., San Diego, Calif.) software to obtain Km and Vmax values.
To obtain potencies of irreversible inhibitors, progressive curves consistent with first order inhibition kinetics (two-step irreversible inhibition mechanism) are fit to equation (2) by nonlinear least squares regressions to determine kobs values at each inhibitor concentration, where [P]t is the absorbance at time t, V0 is a constant related to the steady state rate of the uninhibited reaction, and kobs is the first order rate constant for enzyme inactivation. The inhibitor dissociation constant (Ki) and the first order rate
constant of enzyme inactivation at infinite inhibitor concentration (kinact) are then obtained by fitting the kobs vs. [I] curves to equation (3).

| Compound | kinact/KI [M⁻¹ s⁻¹] | hFAAH KInact/K [M⁻¹ s⁻¹] |
| --- | --- | --- |
| O=C(Nc1cccnn1)N1CCC(=Cc2cccc(OCCc3ccccc3)c2)CC1 [Example 75, 4-[3-(2-phenylethoxy)benzylidene]-N-pyridazin-3-ylpiperidine-1-carboxamide] | – | 36139 |
| N-pyridazin-3-yl-4-[3-(2-pyridin-4-ylethoxy)benzylidene]piperidine-1-carboxamide [Example 79] | – | 3834 |
| CCCCOc1cccc(C=C2CCN(C(=O)Nc3cccnn3)CC2)c1 [Example 51, 4-(3-butoxybenzylidene)-N-pyridazin-3-ylpiperidine-1-carboxamide] | – | 8350 |
| CCC(C)Oc1cccc(C=C2CCN(C(=O)Nc3cccnn3)CC2)c1 (stereo not drawn) [Example 22, 4-(3-sec-butoxybenzylidene)-N-pyridazin-3-ylpiperidine-1-carboxamide] | – | 1260 |
| COc1cccc(C=C2CCN(C(=O)Nc3cccnc3)CC2)c1 [Example 2, 4-(3-methoxybenzylidene)-N-pyridin-3-ylpiperidine-1-carboxamide] | – | 973 |
| 4-{3-[(2-methylpyridin-3-yl)methoxy]benzylidene}-N-pyridazin-3-ylpiperidine-1-carboxamide [Example 59] | – | 328 |
| CC1CCCC(Oc2cccc(C=C3CCN(C(=O)Nc4cccnc4)CC3)c2)C1 (stereo not drawn) [Example 32, 4-{3-[(3-methylcyclohexyl)oxy]benzylidene}-N-pyridin-3-ylpiperidine-1-carboxamide] | – | 712 |
| CC(COc1cccc(C=C2CCN(C(=O)Nc3cccnn3)CC2)c1)CC(F)(F)F (stereo not drawn) [Example 99, N-pyridazin-3-yl-4-[3-(4,4,4-trifluoro-2-methylbutoxy)benzylidene]piperidine-1-carboxamide] | – | 10896 |
| CCCC(C)Oc1cccc(C=C2CCN(C(=O)Nc3cccnn3)CC2)c1 (stereo not drawn) [Example 30, 4-[3-(1-methylbutoxy)benzylidene]-N-pyridazin-3-ylpiperdine-1-carboxamide] | – | 3440 |
| O=C(Nc1cccnc1)N1CCC(=Cc2cccc(OC3CCCOC3)c2)CC1 (stereo not drawn) [Example 12, N-pyridin-3-yl-4-[3-(tetrahydro-2H-pyran-3-yloxy)benzylidene]piperidine-1-carboxamide] | – | 907 |
| O=C(Nc1cccnc1)N1CCC(=Cc2cccc(OC3CCCCCC3)c2)CC1 [Example 18, 4-[3-(cycloheptyloxy)benzylidene]-N-pyridin-3-ylpiperidine-1-carboxamide] | – | 1020 |
| O=C(Nc1cccnn1)N1CCC(=Cc2cccc(OCc3cc4ccccc4o3)c2)CC1 [Example 88, 4-[3-(1-benzofuran-2-ylmethoxy)benzylidene]-N-pyridazin-3-ylpiperidine-1-carboxamide] | – | 629 |
| CC(Cc1ccccc1)Oc1cccc(C=C2CCN(C(=O)Nc3cccnn3)CC2)c1 (stereo not drawn) [Example 91, 4-[3-(1-methyl-2-phenylethoxy)benzylidene]-N-pyridazin-3-ylpiperidine-1-carboxamide] | – | 7398 |
| O=C(Nc1cccnn1)N1CCC(=Cc2cccc(OCCCC(F)(F)F)c2)CC1 [Example 72, N-pyridazin-3-yl-4-[3-(4,4,4-trifluorobutoxy)benzylidene]piperidine-1-carboxamide] | – | 16800 |
| O=C(Nc1cccnn1)N1CCC(=Cc2cccc(OCCc3ccccn3)c2)CC1 [Example 87, N-pyridazin-3-yl-4-[3-(2-pyridin-2-ylethoxy)benzylidene]piperidine-1-carboxamide] | – | 3485 |
| 4-(3-{[trans-4-(cyanomethyl)cyclohexyl]methoxy}benzylidene)-N-pyridazin-3-ylpiperidine-1-carboxamide [Example 96] | – | 1470 |
| O=C(Nc1cccnc1)N1CCC(=Cc2cccc(OC3CCOCC3)c2)CC1 [Example 43, N-pyridin-3-yl-4-[3-(tetrahydro-2H-pyran-4-yloxy)benzylidene]piperidine-1-carboxamide] | – | 738 |
| CCC(C)Oc1cccc(C=C2CCN(C(=O)Nc3cccnn3)CC2)c1 (stereo not drawn) [Example 21, 4-(3-sec-butoxybenzylidene)-N-pyridazin-3-ylpiperidine-1-carboxamide] | – | 973 |
| O=C(Nc1cccnn1)N1CCC(=Cc2cccc(OCCc3cccc(F)c3)c2)CC1 [Example 89, 4-{3-[2-(3-fluorophenyl)ethoxy]benzylidene}-N-pyridazin-3-ylpiperidine-1-carboxamide] | – | 25980 |
| CCCC(C)Oc1cccc(C=C2CCN(C(=O)Nc3cccnc3)CC2)c1 (stereo not drawn) [Example 35, 4-[3-(1-methylbutoxy)benzylidene]-N-pyridin-3-ylpiperidine-1-carboxamide] | – | 2680 |

Now from value to compound:

| kinact/KI [M⁻¹ s⁻¹] | hFAAH KInact/K [M⁻¹ s⁻¹] | Compound |
| --- | --- | --- |
| 404 | – | COc1cnc(NC(=O)N2CCC(=Cc3cccc(OCC4CCCCO4)c3)CC2)cn1 (stereo not drawn) [N-(5-methoxypyrazin-2-yl)-4-[3-(tetrahydro-2H-pyran-2-ylmethoxy)benzylidene]piperidine-1-carboxamide] |
| – | 573 | O=C(Nc1cccnn1)N1CCC(=Cc2cccc(OCC3CCCO3)c2)CC1 (stereo not drawn) [Example 45, N-pyridazin-3-yl-4-[3-(tetrahydrofuran-2-ylmethoxy)benzylidene]piperidine-1-carboxamide] |
| – | 2190 | O=C(Nc1cccnn1)N1CCC(=Cc2cccc(OC3CCCCCC3)c2)CC1 [Example 16, 4-[3-(cycloheptyloxy)benzylidene]-N-pyridazin-3-ylpiperidine-1-carboxamide] |
| – | 783 | O=C(Nc1cccnn1)N1CCC(=Cc2cccc(OC3CCCOC3)c2)CC1 (stereo not drawn) [Example 19, N-pyridazin-3-yl-4-[3-(tetrahydro-2H-pyran-3-yloxy)benzylidene]piperidine-1-carboxamide] |
| – | 16300 | O=C(Nc1cccnn1)N1CCC(=Cc2cccc(OCC3CC=CCC3)c2)CC1 (stereo not drawn) [Example 57, 4-[3-(cyclohex-3-en-1-ylmethoxy)benzylidene]-N-pyridazin-3-ylpiperidine-1-carboxamide] |
| – | 130 | Cc1noc(C)c1COc1cccc(C=C2CCN(C(=O)Nc3cccnn3)CC2)c1 [Example 65, 4-{3-[(3,5-dimethylisoxazol-4-yl)methoxy]benzylidene}-N-pyridazin-3-ylpiperidine-1-carboxamide] |
| – | 2250 | O=C(Nc1cccnn1)N1CCC(=Cc2cccc(OC(F)(F)F)c2)CC1 [Example 5, N-pyridazin-3-yl-4-[3-(trifluoromethoxy)benzylidene]piperidine-1-carboxamide] |
| – | 371 | O=C(Nc1cccnn1)N1CCC(=Cc2cccc(OC3CCOC3)c2)CC1 (stereo not drawn) [Example 17, N-pyridazin-3-yl-4-[3-(tetrahydrofuran-3-yloxy)benzylidene]piperidine-1-carboxamide] |
| – | 2190 | O=C(Nc1cccnn1)N1CCC(=Cc2cccc(OCCc3cnoc3)c2)CC1 [Example 60, 4-[3-(2-isoxazol-4-ylethoxy)benzylidene]-N-pyridazin-3-ylpiperidine-1-carboxamide] |
| 536 | – | Cc1ccc(NC(=O)N2CCC(=Cc3cccc(OCC4CCCCO4)c3)CC2)cn1 (stereo not drawn) [N-(6-methylpyridin-3-yl)-4-[3-(tetrahydro-2H-pyran-2-ylmethoxy)benzylidene]piperidine-1-carboxamide] |
